Test results as given in patent US20240294498A1, “FACTOR XIIA INHIBITORS” (Lunac Therapeutics Ltd, priority 2021, published 2024).
pKi: −log10 of the molar value.

Assays:
Format in all cases: biochemical
FXIIa = target: T1, FXIIa (Homo sapiens, UniProt P00748); experiment: Determination of Factor XIIa inhibition (chromogenic substrate S-2302); settings: human FXIIa alpha, Ki category
T1 construct: FXIIa alpha
T1 sequence (P00748 373-615 limits assumed): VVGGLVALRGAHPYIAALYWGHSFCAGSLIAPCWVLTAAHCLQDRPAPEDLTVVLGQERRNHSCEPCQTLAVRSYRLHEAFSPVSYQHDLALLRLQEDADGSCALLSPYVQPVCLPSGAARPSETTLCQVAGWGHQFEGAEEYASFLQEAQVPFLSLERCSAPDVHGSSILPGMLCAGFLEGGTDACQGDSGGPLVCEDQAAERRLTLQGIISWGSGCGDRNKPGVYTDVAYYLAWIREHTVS
T1 sequence (P00748 20-372 partner limits assumed): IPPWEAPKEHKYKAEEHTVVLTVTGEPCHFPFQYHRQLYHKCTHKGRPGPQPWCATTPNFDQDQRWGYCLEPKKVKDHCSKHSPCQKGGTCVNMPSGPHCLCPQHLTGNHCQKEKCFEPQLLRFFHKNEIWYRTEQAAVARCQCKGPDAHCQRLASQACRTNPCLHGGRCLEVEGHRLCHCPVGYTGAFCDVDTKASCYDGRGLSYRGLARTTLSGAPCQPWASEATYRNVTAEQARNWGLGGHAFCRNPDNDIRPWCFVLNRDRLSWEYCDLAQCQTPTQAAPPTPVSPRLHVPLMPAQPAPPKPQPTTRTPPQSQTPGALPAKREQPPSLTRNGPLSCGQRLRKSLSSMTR
Procedure, shortened: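 Compound preincubated with 10 nM FXIIa for 10 min at 37° C in 50 mM Tris, 137 mM NaCl, pH 7.4, 5% DMSO, top concentration 500 μM; S-2302 added at Km. pNA release followed at 405 nm for 3 h; IC50 from initial rates, converted to Ki via Ki = IC50/(1+[S]/Km).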

FXa = FXa (Homo sapiens, UniProt P00742); experiment: Determination of selectivity: FXa inhibition (chromogenic substrate S2765); settings: fold selectivity for FXIIa over FXa (human); category
Procedure, shortened: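 FXa (5 nM) preincubated with increasing compound (top 500 μM) for 10 mins at 37° C in 50 mM Tris, 137 mM NaCl pH 7.4, 5% DMSO, then S2765 added at its KM. Absorbance at 405 nm followed kinetically for 3 hours; IC50 from initial rates, converted to Ki by Cheng-Prusoff.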

thrombin = target: T2, thrombin (Homo sapiens, UniProt P00734); experiment: Determination of selectivity: thrombin inhibition (chromogenic substrate GPR); settings: fold selectivity for FXIIa over thrombin (human); category
T2 construct: FXa (5 nM) and thrombin (5 nM)
Procedure, shortened: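 Thrombin (5 nM) preincubated with increasing compound concentrations (top 500 μM, 5% DMSO) 10 min at 37 °C in 50 mM Tris, 137 mM NaCl pH 7.4, then GPR chromogenic substrate at its KM. pNA release read kinetically at 405 nm for 3 h at 37 °C. IC50 from initial rates, converted to Ki via Cheng–Prusoff.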

Sequence of FXa (P00742 235-488 limits assumed): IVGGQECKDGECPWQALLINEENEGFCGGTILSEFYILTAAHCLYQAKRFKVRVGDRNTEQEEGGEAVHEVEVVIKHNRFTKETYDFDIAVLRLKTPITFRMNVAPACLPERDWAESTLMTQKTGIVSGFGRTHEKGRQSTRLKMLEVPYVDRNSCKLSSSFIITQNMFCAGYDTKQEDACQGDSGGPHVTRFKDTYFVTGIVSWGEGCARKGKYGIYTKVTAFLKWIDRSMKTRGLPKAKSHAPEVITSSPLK
Sequence of FXa (P00742 41-179 partner limits assumed): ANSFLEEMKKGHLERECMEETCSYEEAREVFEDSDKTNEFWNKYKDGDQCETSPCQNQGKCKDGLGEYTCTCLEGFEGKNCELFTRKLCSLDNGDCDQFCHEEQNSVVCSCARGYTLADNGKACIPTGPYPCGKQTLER

Row | pKi (FXIIa) | FXa (human)/FXIIa alpha (human) (FXa) | SMILES | Thrombin (human)/FXIIa alpha (human) (thrombin)
1 | > 6.70 | ∘∘∘ | Cc1ccc(C[C@@H]2C[C@@H](C(=O)NCc3ccc4c(cnn4C)c3)N(C(=O)[C@@H]3NCCC[C@@H]3C(=O)N3CC[C@H](N(C)C)C3)C2)cc1 [Example M06013, (2S,4R)-1-((2R,3S)-3-((S)-3-(dimethylamino)pyrrolidine-1-carbonyl)piperidine-2-carbonyl)-N-((1-methyl-1H-indazol-5-yl)methyl)-4-(4-methylbenzyl)pyrrolidine-2-carboxamide] | +++ (fold selectivity values greater than 100)
2 | 6.10 to 6.70 | ∘∘∘ | Cn1ncc2cc(CNC(=O)[C@@H]3C[C@@H](Cc4ccc(OC(F)F)cc4)CN3C(=O)[C@@H]3NCCC[C@@H]3C(=O)N3CCCC3)ccc21 [Example M06021] | +++ (fold selectivity values greater than 100)
3 | 6.10 to 6.70 | ∘∘∘ | Cc1ccc(C[C@@H]2C[C@@H](C(=O)NCc3ccc4c(cnn4C)c3)N(C(=O)[C@@H]3NCCC[C@@H]3C(=O)N3CCCC3)C2)s1 [Example M06030, (2S,4S)-N-((1-methyl-1H-indazol-5-yl)methyl)-4-((5-methylthiophen-2-yl)methyl)-1-((2R,3S)-3-(pyrrolidine-1-carbonyl)piperidine-2-carbonyl)pyrrolidine-2-carboxamide] | ++ (a fold selectivity value of 10 to 100)
4 | > 6.70 | ∘∘∘ | Cc1ccc(C[C@@H]2C[C@@H](C(=O)NCc3ccc4c(cnn4C)c3)N(C(=O)[C@@H]3NCCC[C@@H]3C(=O)N(C)C3CCN(C)C3)C2)cc1 (stereo partly drawn) [Example M06033, (2R,3S)-N-methyl-2-((2S,4R)-2-(((1-methyl-1H-indazol-5-yl)methyl)carbmoyl)-4-(4-methylbenzyl)pyrrolidine-1-carbonyl)-N-(1-methylpyrrolidin-3-yl)piperidine-3-carboxamide] | +++ (fold selectivity values greater than 100)
5 | > 6.70 | ∘∘∘ | Cc1ccc(C[C@@H]2C[C@@H](C(=O)NCc3ccc4c(cnn4C)c3)N(C(=O)[C@@H]3NCCC[C@@H]3C(=O)N(C)C3CCN(C)C3)C2)cc1 (stereo partly drawn) [Example M06034, (2R,3S)-N-methyl-2-((2S,4R)-2-(((1-methyl-1H-indazol-5-yl)methyl)carbamoyl)-4-(4-methylbenzyl)pyrrolidine-1-carbonyl)-N-(1-methylpyrrolidin-3-yl)piperidine-3-carboxamide] | +++ (fold selectivity values greater than 100)
6 | > 6.70 | ∘∘∘ | Cc1ccc(C[C@@H]2C[C@@H](C(=O)NCc3ccc4c(cnn4C)c3)N(C(=O)[C@@H]3NCCC[C@@H]3C(=O)N(C)CCN3CCCC3)C2)cc1 [Example M06039, (2R,3S)-N-methyl-2-((2S,4R)-2-(((1-methyl-1H-indazol-5-yl)methyl)carbamoyl)-4-(4-methylbenzyl)pyrrolidine-1-carbonyl)-N-(2-(pyrrolidin-1-yl)ethyl)piperidine-3-carboxamide] | +++ (fold selectivity values greater than 100)
7 | > 6.70 | ∘∘∘ | Cn1ncc2cc(CNC(=O)[C@@H]3C[C@@H](Cc4cc(C5CC5)on4)CN3C(=O)[C@@H]3NCCC[C@@H]3C(=O)N3CCC[C@@H]3C(F)(F)F)ccc21 [Example M06047, (2S,4S)-4-+(5-cyclopropylisoxazol-3-yl)methyl+-N-+(1-methylindazol-5-yl)methyl+-1-+(2R,3S)-3-+(2R)-2-(trifluoromethyl)pyrrolidine-1-carbonyl+piperidine-2-carbonyl+pyrrolidine-2-carboxamide] | +++ (fold selectivity values greater than 100)
8 | > 6.70 | ∘∘∘ | Cc1ccc(C[C@@H]2C[C@@H](C(=O)NCc3ccc4c(cnn4C)c3)N(C(=O)[C@@H]3NCCC[C@@H]3C(=O)N(CCN(C)C)C3CC3)C2)cc1 [Example M06048, (2R,3S)-N-cyclopropyl-N-(2-(dimethylamino)ethyl)-2-((2S,4R)-2-(((1-methyl-1H-indazol-5-yl)methyl)carbamoyl)-4-(4-methylbenzyl)pyrrolidine-1-carbonyl)piperidine-3-carboxamide] | +++ (fold selectivity values greater than 100)
9 | > 6.70 | ∘∘∘ | Cc1ccc(C[C@@H]2C[C@@H](C(=O)NCc3ccc4c(cnn4C)c3)N(C(=O)[C@@H]3NCCC[C@@H]3C(=O)N(C)CCN(C)C3CC3)C2)cc1 [Example M06049, (2R,3S)-N-[2-[cyclopropyl(methyl)amino]ethyl]N-methyl-2-[(2S,4R)-2-[(1-methylindazol-5-yl)methylcarbamoyl]-4-(p-tolylmethyl)pyrrolidine-1-carbonyl]piperidine-3-carboxamide] | +++ (fold selectivity values greater than 100)
10 | > 6.70 | ∘∘∘ | CN(C)CCN(C)C(=O)[C@H]1CCCN[C@H]1C(=O)N1C[C@H](Cc2ccc(C3CC3)cc2)C[C@H]1C(=O)NCc1ccc2c(cnn2C)c1 [Example M06060, (2R,3S)-2-((2S,4R)-4-(4-cyclopropylbenzyl)-2-(((1-methyl-1H-indazol-5-yl)methyl)carbamoyl)pyrrolidine-1-carbonyl)-N-(2-(dimethylamino)ethyl)-N-methylpiperidine-3-carboxamide] | +++ (fold selectivity values greater than 100)
11 | > 6.70 | ∘∘∘ | Cc1ccc(C[C@@H]2C[C@@H](C(=O)NCc3ccc4c(cnn4C)c3)N(C(=O)[C@@H]3NCCC[C@@H]3C(=O)N(C)C3CCN(C)CC3)C2)cc1 [Example M06061, (2R,3S)-N-methyl-2-((2S,4R)-2-(((1-methyl-1H-indazol-5-yl)methyl)carbamoyl)-4-(4-methylbenzyl)pyrrolidine-1-carbonyl)-N-(1-methylpiperidin-4-yl)piperidine-3-carboxamide] | +++ (fold selectivity values greater than 100)
12 | > 6.70 | ∘∘∘ | Cc1ccc(C[C@@H]2C[C@@H](C(=O)NCc3ccc4c(cnn4C)c3)N(C(=O)[C@@H]3NCCC[C@@H]3C(=O)N(C)CCCN(C)C)C2)cc1 [Example M06063, (2R,3S)-N-(3-(dimethylamino)propyl)-N-methyl-2-((2S,4R)-2-(((1-methyl-1H-indazol-5-yl)methyl)carbamoyl)-4-(4-methylbenzyl)pyrrolidine-1-carbonyl)piperidine-3-carboxamide] | +++ (fold selectivity values greater than 100)
13 | 6.10 to 6.70 | ∘∘∘ | Cc1ccc(C[C@@H]2C[C@@H](C(=O)NCc3ccc4c(c3)nnn4C)N(C(=O)[C@@H]3NCCC[C@@H]3C(=O)N3CCC[C@@H]3C(F)(F)F)C2)s1 [Example M06079, (2S,4S)-N-+(1-methylbenzotriazol-5-yl)methyl+-4-+(5-methyl-2-thienyl)methyl+-1-+(2R,3S)-3-+(2R)-2-(trifluoromethyl)pyrrolidine-1-carbonyl+piperidine-2-carbonyl+pyrrolidine-2-carboxamide] | +++ (fold selectivity values greater than 100)
14 | > 6.70 | ∘∘∘ | Cc1ccc(C[C@@H]2C[C@@H](C(=O)NCc3ccc4c(cnn4C)c3)N(C(=O)[C@@H]3NCCC[C@@H]3C(=O)N(C)C3CCN(CCF)CC3)C2)cc1 [Example M06083, (2R,3S)—N-[1-(2-fluoroethyl)-4-piperidyl]-N-methyl-2-[(2S,4R)-2-[(1-methylindazol-5-yl)methylcarbamoyl]-4-(p-tolylmethyl)pyrrolidine-1-carbonyl]piperidine-3-carboxamide] | +++ (fold selectivity values greater than 100)
15 | > 6.70 | ∘∘∘ | COCCN1CCC(N(C)C(=O)[C@H]2CCCN[C@H]2C(=O)N2C[C@H](Cc3ccc(C)cc3)C[C@H]2C(=O)NCc2ccc3c(cnn3C)c2)CC1 [Example M06084, (2R,3S)-N-(1-(2-methoxyethyl)piperidin-4-yl)-N-methyl-2-((2S,4R)-2-(((1-methyl-1H-indazol-5-yl)methyl)carbamoyl)-4-(4-methylbenzyl)pyrrolidine-1-carbonyl)piperidine-3-carboxamide] | +++ (fold selectivity values greater than 100)
